Values of other authors, collected in patent US20250221938A1, “PHARMACEUTICAL COMPOSITION, METHODS FOR TREATING AND USES THEREOF” (Boehringer Ingelheim International GmbH, priority 2015, published 2025).
Counter-ions that a name gives are not always drawn.

Conditions: metformin on its own, in the diabetic

CN(C)C(=N)N=C(N)N [metformin, metformin hydrochloride]
average improvement in the HbA1c value: 1.0-1.5%
